From US9949980B2, “Drugs to prevent HPV infection” (Wisconsin Alumni Research Foundation, priority 2008, dated 2018) come the findings set out here.

Where only a bound is given, the exact number is not on record here.

The nature of one series: in vitro. Conditions: human, Viability (CelTiter Glow).
The next series deals with HPV16 pseudovirus. The series is described as follows: microbe, parasite or virus in culture. To be noted: Human papillomavirus 16, HaCaT, read-out: IC50, HPV16 pseudovirus infection. Format: cell-based. The text has this: (§1) FIG. 2. Dose dependence inhibition of HPV16 pseudovirus infection in a human keratinocyte cell line (HaCaT). Graphed are the dose-dependent effects of lead compounds shown in Table 2 on the efficiency of infection by HPV16 pseudovirus scored by measuring luciferase reporter activity (squares) as well as their effects on cell viability (circles).
(§2) All but one of these compounds (6 is […]) were repurchased and subjected to a tertiary screen performed in the human keratinocyte cell line, HaCaT, and using HPV16 pseudoviruses encoding a third reporter gene, firefly luciferase, transcribed from a different, E1a, promoter.
The infectivity assay was repeated at least twice and each assay was performed in replicate (n≥3).
(§3) At 4 hours prior to exposure of cell to pseudoviruses, compounds were added to plates in 1% DMSO final concentration at the indicated amounts. Four hours later, 10 multiplicity of infection (M.O.I.) units of HPV16 pseudovirus carrying the plasmid LucF was added to the cells. 72 hours later, cells were lysed and luciferase assays performed using the Luciferase Assay System (Promega Cat. #E1501). For infection studies with HPV11 and HPV31 pseudoviruses, 200 virus genome equivalents (vge) of virus per cell were used. Cell viability was assessed in parallel plates by Luminescent Cell Viability Assay (Promega Cat. #G7571).

A further series has as its system HaCaT cells. Type of series: cell-based, human. To be noted: for CD50 (cytotoxicity): human, 76 h.
Description: as §1, §2, §3

In series [1] the test system is HPV16, HPV11, and HPV31 pseudovirus. The series is described as follows: Infection by HPV16, HPV11 and HPV31 pseudovirus in HaCaT cells (all genotypes together). Format: cell-based, HPV. To be noted: for IC50 in words for all three HPV pseudovirus infections: HPV16, HPV11, HPV31, 0.1 to 100 μM; for Concentration that completely inhibited all the tested genotypes: HPV16, HPV11, HPV31 pseudovirus. As for the experimental part:
FIG. 4. Compounds 13 and 14 can inhibit infection by multiple anogenital HPVs. Shown are results from infection experiments in HaCaT cells monitoring the efficiency of infection by HPV16, HPV11 and HPV31 pseudovirus carrying the firefly luciferase gene in the absence (0 μM, vehicle only) or increasing concentrations (0.1 to 100 μM) of Compound 13 or 14. The Y axis is the relative efficiency of infection (squares) or cell viability (circles) as a function of drug concentration (X axis). All data points represent the average of values from triplicate samples. […] Data for HPV16 is the also plotted in FIG. 2.
Infection experiments in human keratinocyte cell line, HaCaT, monitoring the efficiency of infection by HPV16, HPV11, and HPV31 pseudovirus carrying the firefly luciferase gene were conducted in the absence or increasing concentrations (0.1 to 100 μM) of Compounds 13 and 14 (see FIG. 4).
In vitro data were collected at 3 μM concentration. […] A human treatment dosage is preferably between 0.1 μM and 100 mM, more preferably between 1 and 10 mM.
as §3

In a further series the test system is HPV16 pseudoviruses. Description: Virus particle subcellular localization, fluorescently labeled HPV16 pseudovirus. To be noted: 24 hours post infection. Type of series: cell-based. On the procedure: FIG. 6. Localization of HPV16 pseudovirions 24 hours post infection. Shown are representative confocal images of cells exposed to cyberXX-labeled HPV16 pseudovirus in the absence (FIG. 6B) or presence of Compound 13 (FIG. 6C) and Compound 14 (FIG. 6D). FIG. 6A is a mock infection negative control. Nuclei are stained.
Mechanism of action of Compounds 13 and 14. To begin to assess the mechanism by which Compounds 13 and 14 inhibit HPV infection, we performed fluorescent microscopy studies on cells treated or not treated with Compounds 13 and 14 that were exposed to HPV16 pseudoviruses in which the encapsidated DNA was labeled with a fluorescent intercalating agent. […] At 24 hours post infection we observed a typical perinuclear staining for the fluorescently labeled HPV16 pseudoviruses in both the untreated and drug treated cells.
Virus particle sub cellular localization studies: A target DNA was labeled with Syto-14 (Invitrogen, 25 NM) in 293FT cells before virus was being packaged. HaCaT cells were infected with the labeled HPV pseudovirus for 24 hours, harvested, and fixed with 1% formaldehyde for 30 minutes, followed by permeabilization with 0.2% Triton X-100 for 10 minutes. Cells were blocked with Image-IT FX Signal Enhancer (Invitrogen) for 30 minutes and incubated with rabbit anti-lamin B1 (ab16048, Abcam) antibodies. […] Virus localization was determined by fluorescence.

With `CCCn1c2ccccc2c2nnc(SC(CC)C(=O)Nc3ccc(Cl)cn3)nc21` (centres unmarked) [Compound 13, N-(5-chloro-2-pyridinyl)-2-[(5-propyl-5H-[1,2,4]triazino[5,6-b]indol-3-yl)thio]butanamide], in the series “in vitro”, the viability at 52 h, 3 μM was determined as 102%. Besides, in the series on HPV16 pseudovirus, the IC50 is 800 nM. In addition, in the series with HaCaT cells, the “Toxicity / cytotoxicity in words” value is listed as “little to no cytotoxicity” and the “CD50 (cytotoxicity)” value came to 25 µM. Besides, in series [1], the “IC50 in words for all three HPV pseudovirus infections” value is reported as “Submicromolar” and the “Concentration that completely inhibited all the tested genotypes” value turned out to be 10 µM. In addition, the “Step at which the compound inhibits infection (entry of labeled pseudovirus)” value in the series with HPV16 pseudoviruses is given as “function post-entry”.
Take `Cc1cc(C(c2ccc(F)cc2)c2cc(C)c(NC(=O)c3ccccc3)c(C)c2)cc(C)c1NC(=O)c1ccccc1` [Compound 14, N,N′[[(4-fluorophenyl)methylene]bis(2,6-dimethyl-4,1-phenylene)]dibenzamide]: in the series “in vitro”, the viability at 52 h, 3 μM came to 110%. The IC50 in the series on HPV16 pseudovirus is 200 nM. Further, in the series with HaCaT cells, the “Toxicity / cytotoxicity in words” value is “little to no cytotoxicity” and the “CD50 (cytotoxicity)” value is more than 100 µM. Moreover, in series [1], the “IC50 in words for all three HPV pseudovirus infections” value is “Submicromolar” and the “Concentration that completely inhibited all the tested genotypes” value turned out to be 4 µM. In addition, the “Step at which the compound inhibits infection (entry of labeled pseudovirus)” value in the series on HPV16 pseudoviruses is given as “function post-entry”.

By viability is commonly meant a read-out of living cells in per cent, often relative to untreated cells. By IC50 is commonly meant the concentration that gives 50% inhibition.
